The results in this text go back to patent EP1338280A1, “COMBINATION OF AMINES AND VANADIUM (IV)/(V) COMPOUNDS FOR THE TREATMENT AND/OR PREVENTION OF DIABETES MELLITUS” (priority 2000, dated 2002).

Data set [1] is classed as physicochemical. Here is the method:
(§1) Based on the finding of potent insulin-like effects of in vitro incubation of benzylamine and vanadate, the chronic administration of these compounds in diabetic rats was tested. To this end, streptozotocin-induced diabetic rats were implanted subcutaneously with osmotic minipumps releasing benzylamine (84 µmol/kg/day) or were sham-operated. […] A group of animals was also subjected to daily i.p. injection of vanadate (50 µmol/kg body wt) for two weeks.

Data set [2] concerns streptozotocin-induced diabetic rats. Kind of data set: Chronic administration in streptozotocin-induced diabetic rats. The data set is classed as in vivo. Particulars: for food and water consumption / weight of epididymal adipose tissue (adiposity): chronic treatment of diabetic rats. Here is the method: as §1
In other studies, rats were daily injected intraperitoneally with 25 µmol/kg vanadate for the first week and with 50 µmol/kg for the second week. […] However, the combination of benzylamine and vanadate reduced hyperglycemia in diabetic rats during the second week of treatment (FIG. 7).
The chronic treatment with benzylamine and vanadate caused a substantial decrease in food and water consumption which returned to normal levels and an increase in the weight of epididymal adipose tissue. All these variations occurred in the absence of changes in body weight. The effects on adiposity or food and water intake were not detected when benzylamine or vanadate was administered alone. Furthermore the normalisation of glycemia caused by chronic treatment with both benzylamine and vanadate takes place in the absence of changes in plasma insulin concentrations.

For data set [3], the system named is isolated rat adipocytes. In words: Hexose transport ([3H]-2-deoxyglucose uptake) in isolated rat adipocytes. Type of data set: cell-based. Also noted: 2-deoxyglucose uptake (stimulatory effect): dose or concentration left out as unconfirmed. The settings on record: for 2-deoxyglucose uptake (stimulatory effect): benzylamine or orthovanadate alone, 45 min incubation, ten-minute uptake; for glucose transport: 45 min preincubation of fat cells with increasing concentrations, 5-min 2-DG uptake. Here is the method:
Adipocyte isolation. Male Wistar rats (200-260 g) were sacrificed in a fed state, and the internal epididymal adipose tissues was dissected out and digested in Krebs-Ringer buffer as described (cf. C. Carpene et al., Biochem. PharmacoL 1990, voL 40, pp. 437-445). Adipose cells isolated is such a way were used in subsequent studies.
Hexose transport After a preincubation period of 45 min at 37 °C in vials containing 400 µl of cell suspension in KRBH with the tested products, [^3H]-2-deoxyglucose was added at a final concentration of 0.1 mM (approx. 1,300,000 d.p.m./vial). The assays were further incubated for 5 or 10 min and then stopped with 100 µl of cytochalasin B. Aliquots (200 µl) of the cell suspension were centrifuged in microtubes as described (cf. J.M. Olefsky, Biochem. J. 1978, voL 172, pp. 137-145). After centrifugation, the fat cells (upper part of the tubes) were placed in scintillation vials and the incorporated radioactivity was counted.

Data set [4] relates to GLUT4. Kind of data set: GLUT4 translocation: Western blot of GLUT4 in plasma membrane and low density microsome fractions of rat adipocytes. Also noted: abundance of GLUT4 in plasma membranes: dose or concentration left out as unconfirmed. Particulars: for abundance of GLUT4 in plasma membranes: 45 minutes incubation, benzylamine or orthovanadate alone. The data set is classed as cell-based. Here is the method:
To verify whether the stimulation of glucose transport in rat adipocytes may be explained by a translocation of the insulin-sensitive glucose transporters from an internal site to the plasma membrane, as it is known for insulin, the amount of GLUT4 protein was determined in plasma membrane (PM) and low density microsome (LDM) fractions. […] These increases in GLUT4 content occurred without any significant change in the content of β1-integrin, a constitutive PM protein. Changes in the GLUT4 content of LDM mirrored, to a lesser extent, those reported in the PM (basal LDM content was decreased by 29 % and 12 % with insulin and tyramine plus orthovanadate respectively).
This study was carried out in order to determine whether the stimulation of glucose transport induced by the combination of benzylamine and orthovanadate was a consequence of alterations in the abundance of GLUT4 glucose carriers in the cell surface from adipose cells. Thus, isolated rat adipocytes were incubated in the absence or in the presence of insulin, benzylamine ([…]), orthovanadate ([…]) or the combination of benzylamine and orthovanadate, and 45 minutes later cells were homogenized and subjected to subcellular membrane fractionation. […] However, the incubation of cells with benzylamine and orthovanadate caused a 2.3-fold increase in the presence of GLUT4 in plasma membrane fractions. The effects of insulin or the combination benzylamine and orthovanadate on GLUT4 abundance in plasma membranes were specific and the plasma membrane marker β1-integrin remained unaltered after incubation with these agents. The recruitment of GLUT4 to the plasma membranes detected by insulin or the combination of benzylamine and orthovanadate was concomitant with a reduction of GLUT4 abundance in light microsomes. This was consistent with the view that benzylamine and orthovanadate translocate GLUT4 to the plasma membrane in isolated rat adipocytes.

Setting [5] is: vanadate i.p. daily 25 µmol/kg first week and 50 µmol/kg second week, benzylamine 84 µmol/kg.

Molecules are shown by their SMILES.

Consider `NCc1ccccc1` [benzylamine], for which, in data set [1], the “stability in implanted osmotic minipumps” value is listed as “stable for two weeks”. Moreover, in data set [2], the “food and water consumption” value is listed as “not detected”; the “weight of epididymal adipose tissue (adiposity)” value was “not detected”. Besides, in data set [2] (setting [5]), the glycemia entry is given as “remained hyperglycemic”. In addition, in data set [3], the “2-deoxyglucose uptake (stimulatory effect)” value is on record as “no stimulatory effect”. Also, the “abundance of GLUT4 in plasma membranes” value in data set [4] is on record as “did not alter”.

Regarding `OO` [hydrogen peroxide], in data set [3], the glucose transport result is given as “dose-dependently stimulated”. In addition, in data set [3] (Rattus norvegicus, Adipocyte, 0.75 h, 1 mM H2O2, preincubation 45 min, n = 23, read-out: effect relative to the maximal insulin effect), the activation at 1000 µM turned out to be 46%. Also, the fold induction at 1000 µM in data set [3] (Rattus norvegicus, Adipocyte, 0.75 h, 1 mM H2O2, preincubation 45 min, n = 23, read-out: factor by which basal transport is multiplied) amounted to 5 ± 0.8.

In the case of `[Na+].[Na+].[Na+].[O]=[V]([O-])([O-])[O-]` [orthovanadate, sodium orthovanadate Na3VO4], the “food and water consumption” value in data set [2] is listed as “not detected”. Besides, the “weight of epididymal adipose tissue (adiposity)” value in data set [2] is on record as “not detected”. Besides, the glycemia result in data set [2] (vanadate 50 µmol/kg body wt daily i.p. for two weeks, benzylamine 84 µmol/kg/day by osmotic minipumps) is given as “moderate reduction”; in data set [2] (setting [5]) it was “remained hyperglycemic”. Moreover, the “stimulation of glucose transport relative to that of 100 nM insulin (maximal insulin effect)” value in data set [3] (1 mM tyramine, 0.1 mM orthovanadate, n = 40) came to 5 ± 1%. Besides, in data set [3], the “2-deoxyglucose uptake (stimulatory effect)” value is “did not stimulate”. The “basal or insulin-stimulated glucose transport” value in data set [3] (orthovanadate alone 0.1 mM) is “did not affect”. For the same molecule, the “abundance of GLUT4 in plasma membranes” value in data set [4] was “did not alter”. Also, the “amount of GLUT4 protein in the PM” value in data set [4] (Western blot, orthovanadate 0.1 mM, n = 3) is given as 103 ± 8%.

As for `CNC[C@H](O)c1cccc(O)c1` [phenylephrine], the glucose transport entry in data set [3] was “not activated”.

Turning to `NNC(N)=O` [semicarbazide], the inhibition (usually how much of the control response was suppressed) at 100 µM in data set [3] (Rattus norvegicus, Adipocyte, semicarbazide 0.1 mM, read-out: inhibition of the glucose transport promoted by 1 mM tyramine plus orthovanadate) stood at 59 ± 7%. Moreover, in data set [3] (semicarbazide 1 mM), the “benzylamine-orthovanadate-stimulated 2-deoxyglucose uptake” value was “abolished” and the “glucose transport stimulated by 1 mM hydrogen peroxide plus 0.1 mM orthovanadate” value is “unaffected”.

On to `NCCc1c[nH]c2ccc(O)cc12` [serotonin], for which the glucose transport result in data set [3] was “not activated”.

As to `NCCc1ccc(O)cc1` [tyramine], the glucose transport result in data set [3] was “not activated”. Also, the “synergism with low, ineffective dose of hydrogen peroxide on glucose transport” value in data set [3] (hydrogen peroxide 0.01 mM, not shown) is “no synergism”. In addition, the “synergism with low, ineffective dose of insulin on glucose transport” value in data set [3] (insulin 10 pM, not shown) was “no synergism”.
